The values that follow are results of earlier work, collected in US8273874B2, “Method of dynamic nuclear polarisation (DNP) and compounds and compositions for use in the method” (GE Healthcare AS, priority 2006, dated 2012).

For the series the following is noted: human full blood at 37° C.

On to `CC(=O)[13C](=O)O` [^13C1-pyruvate], for which the T1 relaxation entry is “about 42 s”.
